Where two headings read alike, the source gives them in different places.
Molecular target: BTK (Homo sapiens, UniProt Q06187)
Assay: biochemical
[1] = read-out: BTK inhibition (%), 0.75 uM BTK, […] probe 3l, 15 min preincubation

Chain of BTK (Q06187 402-655 limits assumed): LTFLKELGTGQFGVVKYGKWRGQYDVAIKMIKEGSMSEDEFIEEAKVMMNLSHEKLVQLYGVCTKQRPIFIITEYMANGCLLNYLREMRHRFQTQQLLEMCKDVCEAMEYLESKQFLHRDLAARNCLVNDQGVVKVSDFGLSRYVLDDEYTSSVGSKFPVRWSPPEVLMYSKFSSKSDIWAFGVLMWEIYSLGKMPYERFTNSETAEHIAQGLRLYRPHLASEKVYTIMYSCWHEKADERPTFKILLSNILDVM

Structure (SMILES): C[C@@H]1C(=O)O[C@H]2[C@H](O)[C@]34[C@@H]5OC(=O)[C@]3(O[C@@H]3OC(=O)[C@H](O)[C@@]34[C@H](C(C)(C)C)[C@H]5O)[C@@]12O [PCM-0215011]
- inhibition at 10 µM (read-out: BTK inhibition (%)): 5.4%

Structure (SMILES): C/C=C(\C)C(=O)O [PCM-0215012]
- inhibition at 10 µM [1]: 15.6%

Structure (SMILES): COC(=O)c1cc(O)c(O)c(O)c1 [PCM-0215013]
- inhibition at 10 µM [1]: 17.9%

Structure (SMILES): O=C(O)CCc1ccc(O)cc1 [PCM-0215016]
- inhibition at 10 µM [1]: -17.9%

Structure (SMILES): C=C1C[C@@]23CC[C@H]4[C@@](C)(CCC[C@@]4(C)C(=O)O[C@@H]4O[C@H](CO)[C@@H](O)[C@H](O)[C@H]4O)[C@@H]2CC[C@]1(O[C@@H]1O[C@H](CO)[C@@H](O)[C@H](O[C@@H]2O[C@H](CO)[C@@H](O)[C@H](O)[C@H]2O)[C@H]1O[C@@H]1O[C@H](CO)[C@@H](O)[C@H](O)[C@H]1O)C3 [PCM-0215017]
- inhibition at 10 µM [1]: 0.8%

Structure (SMILES): O=Cc1ccc(O[C@@H]2O[C@H](CO)[C@@H](O)[C@@H](O)[C@H]2O)cc1 [PCM-0215018]
- inhibition at 10 µM [1]: 7%

Structure (SMILES): O=C(O)c1cc(O)ccc1O [PCM-0215019]
- inhibition at 10 µM [1]: -21.4%

Structure (SMILES): CC(C)=CCC[C@](C)(O[C@@H]1O[C@H](CO)[C@@H](O)[C@H](O)[C@H]1O)[C@H]1CC[C@]2(C)[C@@H]1[C@H](O)C[C@@H]1[C@@]3(C)CC[C@H](O[C@@H]4O[C@H](CO)[C@@H](O)[C@H](O)[C@H]4O[C@@H]4O[C@H](CO)[C@@H](O)[C@H](O)[C@H]4O)C(C)(C)[C@@H]3CC[C@]12C [PCM-0215020]
- inhibition at 10 µM [1]: 21%

Structure (SMILES): COc1ccc([C@@H]2OC[C@H]3[C@@H]2CO[C@@H]3c2ccc(O[C@@H]3O[C@H](CO)[C@@H](O)[C@H](O)[C@H]3O)c(OC)c2)cc1OC [PCM-0215021]
- inhibition at 10 µM [1]: -6.2%

Structure (SMILES): CC(=O)O[C@H]1C(=O)[C@@]2(C)[C@H]([C@H](OC(=O)c3ccccc3)[C@]3(O)C[C@H](O)C(C)=C1C3(C)C)[C@]1(OC(C)=O)CO[C@@H]1C[C@@H]2O [PCM-0215022]
- inhibition at 10 µM [1]: -17.1%

Structure (SMILES): Cc1ccc2oc(=O)ccc2c1 [PCM-0215023]
- inhibition at 10 µM [1]: -3.9%

Structure (SMILES): OC[C@H]1O[C@@H](Oc2c(O)cc(O)cc2/C=C/c2ccc(O)cc2)[C@H](O)[C@@H](O)[C@@H]1O [PCM-0215025]
- inhibition at 10 µM [1]: 9.7%

Structure (SMILES): OC[C@H]1O[C@@H](O[C@@H]2OC=C[C@H]3[C@H](O)[C@@H]4O[C@]4(CO)[C@@H]23)[C@H](O)[C@@H](O)[C@@H]1O [PCM-0215028]
- inhibition at 10 µM [1]: 26.2%

Structure (SMILES): CC(C)=CCC[C@](C)(O[C@@H]1O[C@H](CO)[C@@H](O)[C@H](O)[C@H]1O)[C@H]1CC[C@]2(C)[C@@H]1[C@H](O)C[C@@H]1[C@@]3(C)CC[C@H](O)C(C)(C)[C@@H]3[C@@H](O[C@@H]3O[C@H](CO)[C@@H](O)[C@H](O)[C@H]3O)C[C@]12C [PCM-0215029]
- inhibition at 10 µM [1]: 14%

Structure (SMILES): CC(C)=CCC[C@](C)(O[C@@H]1O[C@H](CO[C@@H]2O[C@H](CO)[C@@H](O)[C@H](O)[C@H]2O)[C@@H](O)[C@H](O)[C@H]1O)[C@H]1CC[C@]2(C)[C@@H]1[C@H](O)C[C@@H]1[C@@]3(C)CC[C@H](O[C@@H]4O[C@H](CO)[C@@H](O)[C@H](O)[C@H]4O[C@@H]4O[C@H](CO)[C@@H](O)[C@H](O)[C@H]4O)C(C)(C)[C@@H]3CC[C@]12C [PCM-0215030]
- inhibition at 10 µM [1]: -0.7%

Structure (SMILES): COc1cc(C(=O)O)cc(OC)c1OC [PCM-0215032]
- inhibition at 10 µM [1]: -21%

Structure (SMILES): COC(=O)c1cc(OC)c(OC)c(OC)c1 [PCM-0215033]
- inhibition at 10 µM [1]: -13.2%

Structure (SMILES): OC[C@@H](O)[C@H](O)[C@H](O)[C@@H](O)CO [PCM-0215034]
- inhibition at 10 µM [1]: -10.1%

Structure (SMILES): C[C@H](CCC(=O)NCCS(=O)(=O)O)[C@H]1CC[C@H]2[C@@H]3[C@H](O)C[C@@H]4C[C@H](O)CC[C@]4(C)[C@H]3CC[C@]12C [PCM-0215035]
- inhibition at 10 µM [1]: -0.8%

Structure (SMILES): COC(=O)c1ccc(O)c(O)c1 [PCM-0215036]
- inhibition at 10 µM [1]: -15.6%

Structure (SMILES): COC1[C@@H](O)[C@@H](O)C(O)[C@H](O)[C@H]1O (stereo partly shown) [PCM-0215037]
- inhibition at 10 µM [1]: -11%

Structure (SMILES): OC[C@H]1OC(O)[C@H](O)[C@@H](O)[C@H]1O (stereo partly shown) [PCM-0215038]
- inhibition at 10 µM [1]: -23.3%

Structure (SMILES): CCOC(=O)/C=C/c1ccc(O)c(OC)c1 [PCM-0215040]
- inhibition at 10 µM [1]: -8.3%

Structure (SMILES): OCc1ccc(O)cc1 [PCM-0215041]
- inhibition at 10 µM [1]: 9.3%

Structure (SMILES): COc1cc(CO)ccc1O [PCM-0215042]
- inhibition at 10 µM [1]: 0%

Structure (SMILES): CC(C)(O)[C@H]1CC[C@@](C)([C@H]2[C@@H](O)C[C@@]3(C)[C@@H]4C[C@H](O)[C@H]5C(C)(C)[C@@H](O)CC[C@@]56C[C@@]46CC[C@]23C)O1 [PCM-0215043]
- inhibition at 10 µM [1]: -14.8%

Structure (SMILES): O=C1CCC[C@@H]2[C@H]3CCCN4CCC[C@H](CN12)[C@@H]34 [PCM-0215044]
- inhibition at 10 µM [1]: -16.3%

Structure (SMILES): CC(C)(C)OC(=O)N[C@@H]1CCCC[C@H]1N [PCM-0215045]
- inhibition at 10 µM [1]: -24.1%

Structure (SMILES): CC1(C)CC[C@]2(C(=O)O)CC[C@]3(C)C(=CC[C@@H]4[C@@]5(C)CC[C@H](O)[C@@](C)(CO)[C@@H]5CC[C@]43C)[C@@H]2C1 [PCM-0215046]
- inhibition at 10 µM [1]: 15.6%

Structure (SMILES): C=C(C)[C@@H]1CC[C@]2(C(=O)O)CC[C@]3(C)[C@H](CC[C@@H]4[C@@]5(C)CCC(=O)C(C)(C)[C@@H]5CC[C@]43C)[C@@H]12 [PCM-0215047]
- inhibition at 10 µM [1]: 66.9%

Structure (SMILES): C[C@H]1[C@H](C)CC[C@]2(C(=O)O)CC[C@]3(C)C(=CC[C@@H]4[C@@]5(C)CCC(=O)C(C)(C)[C@@H]5CC[C@]43C)[C@H]12 [PCM-0215048]
- inhibition at 10 µM [1]: 7%

Structure (SMILES): C[C@@]12CC[C@@H]3[C@@](CC[C@H]4[C@@]3(C)CCC[C@@]4(C)C(=O)O)(CC1=O)C2 [PCM-0215049]
- inhibition at 10 µM [1]: -16.3%

Structure (SMILES): O=C1C(c2[nH]c3ccccc3c2O)=Nc2ccccc21 [PCM-0215050]
- inhibition at 10 µM [1]: 28.8%

Structure (SMILES): COc1c(O[C@@H]2O[C@H](CO)[C@@H](O)[C@H](O)[C@H]2O)cc2occ(-c3ccc(O)cc3)c(=O)c2c1O [PCM-0215052]
- inhibition at 10 µM [1]: -3.1%

Structure (SMILES): CC(=O)c1ccc(O)c(C(=O)O)c1 [PCM-0215053]
- inhibition at 10 µM [1]: -9.3%

Structure (SMILES): CC(=O)O[C@]1(C)CC[C@@]23C[C@@H]1C(C)(C)[C@@H]2CC[C@H]3C [PCM-0215054]
- inhibition at 10 µM [1]: 10.9%

Structure (SMILES): O=C(O)CCc1c[nH]c2ccccc12 [PCM-0215055]
- inhibition at 10 µM [1]: -34.2%

Structure (SMILES): CC(=O)Oc1cc(C)c(OC(C)=O)c2ccccc12 [PCM-0215056]
- inhibition at 10 µM [1]: -25.7%

Structure (SMILES): NC(=O)c1ccc[n+]([O-])c1 [PCM-0215057]
- inhibition at 10 µM [1]: 5.4%

Structure (SMILES): COC(=O)c1cc(OC)c(O)c(OC)c1 [PCM-0215058]
- inhibition at 10 µM [1]: -17.1%

Structure (SMILES): CC(C)c1cccc(O)c(=O)c1 [PCM-0215059]
- inhibition at 10 µM [1]: 3.9%

Structure (SMILES): C[C@H](CC[C@@]1(O)O[C@H]2C[C@H]3[C@@H]4CC=C5C[C@@H](O[C@@H]6O[C@H](CO)[C@@H](O[C@@H]7O[C@@H](C)[C@H](O)[C@@H](O)[C@H]7O)[C@H](O)[C@H]6O[C@@H]6O[C@@H](C)[C@H](O)[C@@H](O)[C@H]6O)CC[C@]5(C)[C@H]4CC[C@]3(C)[C@H]2[C@@H]1C)CO[C@@H]1O[C@H](CO)[C@@H](O)[C@H](O)[C@H]1O [PCM-0215060]
- inhibition at 10 µM [1]: -28%

Structure (SMILES): CCC(=O)O[C@H]1CC[C@H]2[C@@H]3CC[C@H]4CC(=O)[C@H](C)C[C@]4(C)[C@H]3CC[C@]12C [PCM-0215061]
- inhibition at 10 µM (read-out: BTK inhibition (%)): -14%

Structure (SMILES): CC(=O)O[C@H]1CC[C@H]2[C@@H]3CCC4=CC(=O)CCC4=C3C=C[C@]12C [PCM-0215062]
- inhibition at 10 µM (read-out: BTK inhibition (%)): 2.3%

Structure (SMILES): C[C@]12C=CC(=O)C=C1CC[C@@H]1[C@@H]2CC[C@@]2(C)[C@H]1CC[C@]2(C)O [PCM-0215063]
- inhibition at 10 µM (read-out: BTK inhibition (%)): -11.7%

Structure (SMILES): Clc1ncnc2nc[nH]c12 [PCM-0215064]
- inhibition at 10 µM [1]: 9.3%

Structure (SMILES): Cc1cn([C@H]2C[C@H](O)[C@@H](CO)O2)c(=O)[nH]c1=O [PCM-0215065]
- inhibition at 10 µM [1]: -11.7%

Structure (SMILES): CC(=O)Oc1cccc2ccccc12 [PCM-0215066]
- inhibition at 10 µM [1]: -21%

Structure (SMILES): CC(=O)c1ccc(O)cc1O [PCM-0215067]
- inhibition at 10 µM [1]: 9.3%

Structure (SMILES): COc1cc(C=O)cc(OC)c1O [PCM-0215069]
- inhibition at 10 µM [1]: -33.5%

Structure (SMILES): O=C1CCc2ccc(O)cc2N1 [PCM-0215070]
- inhibition at 10 µM [1]: 9.3%

Structure (SMILES): OC[C@H]1O[C@H](OC[C@H]2OC(O)[C@H](O)[C@@H](O)[C@@H]2O)[C@H](O)[C@@H](O)[C@H]1O (stereo partly shown) [PCM-0215071]
- inhibition at 10 µM [1]: -21.8%

Structure (SMILES): O=c1ccn([C@@H]2O[C@H](CO)[C@@H](O)[C@@H]2O)c(=O)[nH]1 [PCM-0215072]
- inhibition at 10 µM [1]: 5.4%

Structure (SMILES): OC[C@@H](O)[C@@H](O[C@H]1O[C@H](CO)[C@@H](O)[C@H](O)[C@H]1O)[C@H](O)[C@@H](O)CO [PCM-0215074]
- inhibition at 10 µM [1]: -16.3%

Structure (SMILES): O=C(O)c1ccc(O)c(O)c1 [PCM-0215076]
- inhibition at 10 µM [1]: 2.8%

Structure (SMILES): COc1cc(C=O)ccc1OC(C)=O [PCM-0215077]
- inhibition at 10 µM [1]: -10.1%

Structure (SMILES): CC1(C)[C@H]2CC[C@]1(C)[C@H](O)C2 [PCM-0215078]
- inhibition at 10 µM [1]: -20.2%

Structure (SMILES): CO/N=C(\C(=O)N[C@@H]1C(=O)N2C(C(=O)OC(C)OC(C)=O)=C(COC(N)=O)CS[C@H]12)c1ccco1 (stereo partly shown) [PCM-0215079]
- inhibition at 10 µM [1]: 2.8%

Structure (SMILES): CC(=O)O [PCM-0215080]
- inhibition at 10 µM [1]: -2.3%

Structure (SMILES): CC/C=C(\C(=O)N[C@@H]1C(=O)N2C(C(=O)OCOC(=O)C(C)(C)C)=C(COC(N)=O)CS[C@H]12)c1csc(N)n1 [PCM-0215081]
- inhibition at 10 µM [1]: 8.6%

Structure (SMILES): O=c1[nH]c(=O)n([C@H]2C[C@H](O)[C@@H](CO)O2)cc1/C=C/Br [PCM-0215082]
- inhibition at 10 µM [1]: 7.7%

Structure (SMILES): COC(=O)c1ccc(O)cc1 [PCM-0215083]
- inhibition at 10 µM [1]: -5.4%

Structure (SMILES): O[C@@H]1[C@H](O)[C@@H](O)CO[C@H]1O [PCM-0215084]
- inhibition at 10 µM [1]: 0.8%

Structure (SMILES): CC1=CC(=O)CC(C)(C)C1=O [PCM-0215085]
- inhibition at 10 µM [1]: 7.8%

Reference: paper PMC8041284, “Tunable Methacrylamides for Covalent Ligand Directed Release Chemistry” (Journal of the American Chemical Society, 2021)
